Data on 2 compounds can be found in patent US9164090B2, “Methods for detecting molecular interactions” (Korea Advanced Institute of Science and Technology, priority 2007, dated 2015).

The target of one experiment is T1, FKBP protein (Homo sapiens, UniProt P62942).
T1 construct: fluorescent protein (mRFP); ferritin (FT); expressed in transfected cells; host or cells: HeLa
In words: Formation of nano-assembly matrices of FKBP (wild type)-ferritin by AP1510 in Hela cells. It counts as cell-based. As to conditions: 1 μM AP1510. An excerpt:
In this experiment, a FKBP (wild type) protein was used as a material for inducing the formation of nano-assembly matrices, while an AP1510 compound was used as a material for mediating the binding between FKBP proteins. The AP1510 compound is a FK506-like compound and is a mediator (regulator) material, which has two moieties capable of binding to the FKBP protein, linked with each other by a linker, such that it can interact simultaneously with two molecules of the FKBP protein.
Two FKBP (wild type) proteins were continuously fused to ferritin and expressed in Hela cells. The cells were treated with 1 μM of the AP1510 compound, which is an FKBP interaction mediator (regulator) material, and the formation of nano-assembly matrices within 1 hour was observed through In-Cell Analyzer 1000 (GE) (FIG. 35). After the formation of the nano-assembly matrices was induced for 3 hours, the cells were treated with 250 nM of Rapamycin for 1 hour.
For the case where mRFP was attached to the FKBP protein in Example 7, various fluorescent proteins, such as ECFP, TagCFP and mTFP1, were attached to the FKBP protein to examine the effect of the AP1510 compound on the induction of formation of nano-assembly matrices.
FKBP was fused to the ferritin protein, and the three different fluorescent proteins were attached between FKBP and ferritin, and then expressed in Hela cells. […]

The subject of the next experiment is IkBα and IKKb. The experiment in a line: Formation of nano-assembly matrix by IKKb-IkBα interaction on physiological signal in Hela cells. The experiment is classed as cell-based. As to conditions: TNFa treatment; FRB-ECFP-FT, IKKb-mRFP-FKBP and IkBα-YFP-FKBP. An excerpt: In another example, IKKb-IkBα proteins were used as prey-bait, and TNFa was used as a material for mediating (regulating) the interaction between them. The IkBα and IKKb proteins interact with each other, only when a physiological external signal of TNFa is transferred to cells. The interaction between phosphorylase (such as IKKb) and IkBα that is the substrate thereof is known as one of the weakest interactions in cells. The recombinant genes FRB-ECFP-FT, IKKb-mRFP-FKBP and IkBα-YFP-FKBP were introduced together into Hela cells, and each of the fusion proteins was expressed in the cells.

T1 sequence (P62942 whole entry): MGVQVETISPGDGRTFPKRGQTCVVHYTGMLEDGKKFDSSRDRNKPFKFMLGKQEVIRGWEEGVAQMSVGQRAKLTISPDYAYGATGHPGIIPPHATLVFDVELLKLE

Turning to `CCC(C)(C)C(=O)C(=O)N1CCCC[C@H]1C(=O)O[C@H](CCc1ccc(OC)c(OC)c1)c1cccc(OCC(=O)NCCNC(=O)COc2cccc([C@@H](CCc3ccc(OC)c(OC)c3)OC(=O)[C@@H]3CCCCN3C(=O)C(=O)C(C)(C)CC)c2)c1` [AP1510], the “induction of formation of nano-assembly matrices depending on fluorescent protein” value on FKBP protein (ECFP, TagCFP or mTFP1 between FKBP and ferritin) was “induced more effectively in the case of TagCFP-mTFP1 and mTFP1 than the case of ECFP”. At FKBP protein (two FKBP (wild type) fused to ferritin), the “time to formation of nano-assembly matrices” value is at most 1 h.

Turning to TNFa, in the experiment with IkBα and IKKb, the “formation of nano-assembly matrix” value is “a large nano-assembly matrix was formed in cells”.
